Measured values published in patent US8409603B2, “Compositions and methods for tissue engineering, tissue regeneration and wound healing” (University of South Carolina, priority 2009, dated 2013).

System: lens epithelial cells
Assay: Toroid (ring) formation by cells added onto polymerized collagen gel
Type: cell-based
Conditions: addition to the culture fluid of 3-30 ng
Procedure: FIG. 1 illustrates examples of toroids generated from EMT-primed lens epithelial cells; a-c) a control series of 3 toroids generated in regular media, d-f) a control series of 3 toroids generated in media containing a control peptide and g-h) a series of 3 toroids generated in media containing a an ACT1 peptide in combination with Tgfb1.
In a variation on this protocol, cells were added onto an already polymerized gel and the gel was detached after 24 hours of culture. Following a subsequent 24 hours it was noted that quite unlike what was observed when cells were pre-mixed into the gel, cells added post-polymerization always formed into uniform circular rings of repeatable diameter (FIG. 1b). […] Confocal microscopy of rhodamine-phalloidin and nuclear-DAPI stained gels indicated a two-phase structure with cells undergoing recruitment at the outer rim arranging in radial spoke-like arrays (FIG. 1e), whereas cells in on the inner rim organized into a contractile ring (FIG. 1f). […] This experiment was repeated with REC cells (Wada A M, Smith T K, Osler M E, Reese D E, Bader D M. Epicardial/Mesothelial cell line retains vasculogenic potential of embryonic epicardium. Circ Res. 2003 Mar. 21; 92(5):525-31. Epub 2003 Feb. 6, incorporated by reference herein), a rat […] with similar effect. […]

Substance: TGF-b
- ring size of toroid: predictably altered
